What all share (test): growth of human tumour cells (NCI), 48 h
For assay [1], the system named is HCC-2998 colon.
The subject of assay [2] is K-562 leukemia.
Assay [3] concerns NCI-H23 lung.
The test system of assay [4] is NCI-H460 lung.
Assay [5] concerns NCI-H522 lung.
In assay [6] the test system is RPMI-8226 leukemia.
Assay [7] has as its system RXF 393 renal.
Assay [8] concerns SK-MEL-28 melanoma.
Assay [9] deals with SW-620 colon.
In assay [10] the test system is UO-31 renal.

Where “and” joins values, the source holds several entries; their conditions need not be identical. Identical values can stand only once.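 These data come from cells grown in 96-well plates and exposed to compound for 48 hours at five concentrations. Here, GI50 denotes the concentration required for 50% inhibition of growth. The concentration for full growth arrest is given as TGI.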

For `COc1cc2c3c(n(C)c(=O)c2cc1OC)-c1cc2c(cc1/C3=C\CCCBr)OCO2`, the TGI in assay [1] was more than 51.3 µM; in assay [2], more than 100 µM; in [3] it was 49.6 µM; in assay [4], more than 100 µM; in [5] it was more than 30.2 µM; in assay [6] it was more than 100 µM. In addition, the TGI in assay [7] was 16.8 µM; in assay [8], more than 100 µM; in assay [9], more than 100 µM; in assay [10], more than 100 µM. The GI50 is 58.3 µM in assay [2]; 19.6 µM in [3]; 26.9 µM in [4]; 29.1 µM in assay [6]; 6.35 µM in assay [7]; more than 100 µM in [8]. Further, the GI50 in assay [9] was more than 100 µM; in assay [10], more than 49.7 µM.
Take `COc1cc([C@@H]2c3cc4c(cc3[C@H](O)[C@H]3COC(=O)[C@H]23)OCO4)cc(OC)c1OC`: the GI50 was less than 0.005 µM in assay [1]; less than 0.01 µM in assay [2]; less than 0.01 µM in [3]; less than 0.005 µM in [4]; less than 0.01 µM in [5]; less than 0.01 µM in [6]. For the same compound, the GI50 was less than 0.01 µM in [7], less than 0.01 µM in assay [8], less than 0.01 µM in assay [9] and less than 0.005 µM in assay [10]. Further, the TGI in assay [2] was > 100 µM and 50 µM; in assay [3], > 100 µM and 50 µM and > 7.43 µM; in assay [4], > 100 µM and 50 µM and > 7.95 µM; in assay [5], less than 0.01 µM; in assay [8], > 100 µM and 50 µM; in assay [9], > 100 µM and 50 µM. For the same compound, the TGI in assay [10] was > 100 µM and 50 µM and 42.7 µM.
Take `CCCCN(CCCC)CCCN=c1nc2c(c(N)n1-c1ccccc1)c(=S)n(-c1ccccc1)c(=S)n2-c1ccccc1`: the GI50 in assay [1] is 0.825 µM; in assay [2] it was 0.54 µM; in assay [3], 1.88 µM; in assay [4], 0.483 µM; in assay [5] it was 0.664 µM; in assay [6], 0.159 µM. Further, the GI50 was 1.96 µM in assay [7], 0.173 µM in [8], 0.568 µM in assay [9] and 0.389 µM in assay [10]. Moreover, the TGI is 2.52 µM in [1]; more than 100 µM in assay [2]; 3.97 µM in [3]; 1.71 µM in [4]; 2.23 µM in [5]; 0.327 µM in assay [6]. For the same compound, the TGI in assay [7] was found to be 4.75 µM; in assay [8], 0.338 µM; in [9], 2.62 µM; in assay [10], 1.02 µM.
Regarding `CC1=C(/C=C/C(C)=C/C=C/C(C)=C/C(=O)Nc2ccc(O)cc2)C(C)(C)CCC1`, the GI50 is 2.12 µM in assay [1]; 1.38 µM in [2]; 1.83 µM in assay [3]; 2.58 µM in [4]; 0.262 µM in [5]; 1.09 µM in assay [6]. The GI50 was 2.87 µM in assay [8] and 1.17 µM in assay [10]. Also, the TGI is 5.97 µM and 18 µM in assay [1]; 4.28 µM and > 40.4 µM in [2]; 5.41 µM and 5.3 µM in [3]; 9.48 µM and 25.2 µM in assay [4]; 0.787 µM and 2.82 µM in assay [5]; 8.9 µM and 9.14 µM in assay [6]. The TGI in assay [7] was 6.5 µM and 5.43 µM; in assay [8], 8.69 µM and 12.1 µM; in assay [9], 13.7 µM and 44.5 µM; in assay [10], 2.57 µM and 11.6 µM.
Turning to `O=C1/C(=C/c2ccccc2)CCC/C1=C\c1ccccc1`, the GI50 is 2.72 µM in [1]; 20.3 µM and 4.56 µM in assay [2]; 6.88 µM in assay [3]; 6.09 µM and 19.8 µM in [4]; 6.46 µM and 13.7 µM and 15.7 µM in [5]; 2.89 µM and 2.23 µM in [6]. The GI50 is 7.73 µM and 4.27 µM in assay [7]; 6.84 µM and 18.9 µM in assay [8]; 6.37 µM and 3.19 µM in assay [9]; 6.04 µM and 12.5 µM in assay [10]. Besides, the TGI in [1] was 25.8 µM and 7.64 µM; in assay [2] it was 36.5 µM and 32.9 µM and > 100 µM; in [3] it was 12.3 µM and 21.9 µM and 36.4 µM; in assay [4], 12 µM and 34 µM and 46.8 µM; in assay [5], 11.8 µM and 31.8 µM and 35 µM; in assay [6], 36.5 µM and > 20.1 µM and 5.89 µM. Besides, the TGI in assay [7] was 13.4 µM and 32.3 µM and 17.8 µM; in assay [8], 12.3 µM and 32.7 µM and 38.2 µM; in assay [9], 11.8 µM and 6.4 µM and 11.2 µM; in assay [10] it was 11 µM and 32.3 µM and 28 µM.
Turning to `CCc1c(Cl)nc(Cl)nc1Cl`, the TGI in [1] was 0.774 µM; in [2], more than 32 µM; in [3], 2.06 µM; in assay [4], 10.4 µM; in assay [5], 0.113 µM; in [6], 0.252 µM. The TGI in assay [7] worked out at 0.968 µM; in assay [8], 5.54 µM; in assay [9] it was 1.39 µM; in [10], 4.85 µM.
For `Oc1cc(O)c2c(=S)cc(-c3ccc(Cl)cc3)oc2c1`, the GI50 is 1.7 µM in [1]; 3.48 µM in [2]; 2.06 µM in assay [3]; 2.96 µM in [4]; 2.29 µM in assay [5]; 2.82 µM in assay [6]. Moreover, the GI50 in assay [7] is 3.15 µM; in [8], 4.15 µM; in assay [9], 3.55 µM; in assay [10], 1.21 µM. The TGI in [1] came out at 14.5 µM; in assay [2], 22.3 µM; in [3], 8.8 µM; in assay [4] it was 13.3 µM; in assay [5], 7.25 µM; in assay [6], 9.9 µM. Also, the TGI in assay [7] was 12.5 µM; in assay [8], 18.4 µM; in assay [9], 16.9 µM; in assay [10], 8.58 µM.
Turning to `C#CCNC(=O)CC[C@]1(C)[C@H]2CC[C@@H]3[C@@H]([C@@](C)(O)CCC=C(C)C)CC[C@@]3(C)[C@]2(C)CC[C@H]1C(=C)C`, the GI50 in [1] is 45.8 µM; in assay [2], 17.8 µM; in [3], 27.7 µM; in assay [4], 31.2 µM; in assay [5] it was 15.2 µM; in assay [6], 20.1 µM. In addition, the GI50 in assay [7] was 26.2 µM; in assay [8], 26.9 µM; in assay [9], 29.4 µM; in assay [10], 14.1 µM. The TGI in assay [1] is more than 100 µM; in assay [2], 49.6 µM; in assay [3], more than 100 µM; in assay [4] it was more than 100 µM; in [5], 35.1 µM; in [6] it was 62.9 µM. The TGI in assay [7] is 81.9 µM; in assay [8], 80 µM; in [9], more than 100 µM; in [10], 29.1 µM.
